Measurements: patent US9695155B2, “Herbicidal substituted pyrimidinyloxy benzene compounds” (E. I. DU PONT DE NEMOURS AND COMPANY, priority 2013, dated 2017)

What was measured:
goosegrass [1] = experiment: Test C postemergence; assay type: in vivo, Eleusine indica; conditions: for Plant response rating (0 to 100), Goosegrass: postemergence; for Plant response rating, Goosegrass: Postemergence, scale 0 to 100 (0 no effect, 100 complete control)
Description: (§1) Seeds of plant species selected from blackgrass (Alopecurus myosuroides), Italian ryegrass (Lolium multiflorum), wheat, winter (winter wheat, Triticum aestivum), galium (catchweed bedstraw, Galium aparine), corn (Zea mays), large (Lg) crabgrass (Digitaria sanguinalis), giant foxtail (Setaria faberii), johnsongrass (Sorghum halepense), lambsquarters (Chenopodium album), morningglory (Ipomoea coccinea), yellow nutsedge (Cyperus esculentus), pigweed (Amaranthus retroflexus), ragweed (common ragweed, Ambrosia elatior), soybean (Glycine max), barnyardgrass (Echinochloa crus-galli), oilseed rape (Brassica napus), waterhemp (common waterhemp, Amaranthus rudis), kochia (Kochia scoparia), wild oat (Avena fatua), surinam grass (Brachiaria decumbens), foxtail, green (green foxtail, Setaria viridis), goosegrass (Eleusine indica), bromegrass, downy (downy bromegrass, Bromus tectorum), nightshade (eastern black nightshade, Solanum ptycanthum), cocklebur (common cocklebur, Xanthium strumarium), cupgrass, woolly (woolly cupgrass, Eriochloa villosa), bermudagrass (Cynodon dactylon), sunflower, (common oilseed sunflower, Helianthus annuus), Russian thistle (Salsola kali), and velvetleaf (Abutilon theophrasti) were planted into a blend of loam soil and sand and treated preemergence with test chemicals formulated in a non-phytotoxic solvent mixture which included a surfactant.
(§2) At the same time, plants selected from these crop and weed species and also barley, winter (winter barley, Hordeum vulgare), windgrass (Apera spica-venti), chickweed (common chickweed, Stellaria media), deadnettle (henbit deadnettle, Lamium amplexicaule), and canarygrass (littleseed canarygrass, Phalaris minor) were planted in pots containing Redi-Earth® planting medium (Scotts Company, 14111 Scottslawn Road, Marysville, Ohio 43041) comprising spaghnum peat moss, vermiculite, wetting agent and starter nutrients and treated with postemergence applications of test chemicals formulated in the same manner. Plants ranged in height from 2 to 18 cm (1- to 4-leaf stage) for postemergence treatments. Treated plants and controls were maintained in a greenhouse for 13 to 15 days, after which time all species were compared to controls and visually evaluated. Plant response ratings, summarized in Table C, are based on a scale of 0 to 100 where 0 is no effect and 100 is complete control. A dash (-) response means no test result.

bromegrass, downy = experiment: Test C postemergence; assay type: in vivo, Bromus tectorum; conditions: for Plant response rating (0 to 100), Bromegrass, Downy: postemergence; for Plant response rating, Bromegrass, Downy: Postemergence, scale 0 to 100 (0 no effect, 100 complete control)
Description: as §1, §2

windgrass = experiment: Test C postemergence; assay type: in vivo, Apera spica-venti; conditions: for Plant response rating (0 to 100), Windgrass: postemergence; for Plant response rating, Windgrass: Postemergence, scale 0 to 100 (0 no effect, 100 complete control)
Description: as §1, §2

palmer pigweed = experiment: Test E postemergence; assay type: in vivo, Amaranthus palmeri; conditions: post-emergence, read-out: Plant response rating, Pigweed, Palmer
Description: Seeds of plant species selected from corn (Zea mays), soybean (Glycine max), velvetleaf (Abutilon theophrasti), lambsquarters (Chenopodium album), wild poinsettia (Euphorbia heterophylla), palmer pigweed (Amaranthus palmeri), waterhemp (common waterhemp, Amaranthus rudis), surinam grass (Brachiaria decumbens), large (Lg) crabgrass (Digitaria sanguinalis), Brazilian crabgrass (Digitaria horizontalis), fall panicum (Panicum dichotomiflorum), giant foxtail (Setaria faberii), green foxtail (Setaria viridis), goosegrass (Eleusine indica), johnsongrass (Sorghum halepense), ragweed (common ragweed, Ambrosia elatior), barnyardgrass (Echinochloa crus-galli), sandbur (southern sandbur, Cenchrus echinatus), arrowleaf sida (Sida rhombifolia), Italian ryegrass (Lolium multiflorum), dayflower (Virginia (VA) dayflower, Commelina virginica), field bindweed (Convolvulus arvensis), morningglory (Ipomoea coccinea), nightshade (eastern black nightshade, Solanum ptycanthum), kochia (Kochia scoparia), yellow nutsedge (Cyperus esculentus), cocklebur (common cocklebur, Xanthium strumarium), smartweed (ladysthumb smartweed, and hairy beggarticks (Bidens pilosa), were planted into a silt loam soil and treated preemergence with test chemicals formulated in a non-phytotoxic solvent mixture which included a surfactant.
At the same time, plants from these crop and weed species and also horseweed (Canada horseweed, Conyza canadensis), waterhemp_RES1, (ALS & Triazine resistant common waterhemp, Amaranthus rudis), and waterhemp_RES2, (ALS & HPPD resistant common waterhemp, Amaranthus rudis) were planted in pots containing Redi-Earth® planting medium (Scotts Company, 14111 Scottslawn Road, Marysville, Ohio 43041) comprising spaghnum peat moss, vermiculite, wetting agent and starter nutrients were treated with postemergence applications of test chemicals formulated in the same manner. Plants ranged in height from 2 to 18 cm for postemergence treatments (1- to 4-leaf stage). Treated plants and controls were maintained in a greenhouse for 14 to 21 days, after which time all species were compared to controls and visually evaluated. Plant response ratings, summarized in Table E, are based on a scale of 0 to 100 where 0 is no effect and 100 is complete control. A dash (-) response means no test result.

kochia = experiment: Test C preemergence; assay type: in vivo, Kochia scoparia; conditions: for Kochia plant response rating: preemergence, scale 0 (no effect) to 100 (complete control); for Plant response rating, Kochia: Preemergence, 31 g ai/ha, scale 0 to 100, 0 no effect, 100 complete control
Description: as §1, §2

surinam grass = experiment: Test C preemergence; assay type: in vivo, Brachiaria decumbens; conditions: for Surinam Grass plant response rating: preemergence, scale 0 (no effect) to 100 (complete control); for Plant response rating, Surinam Grass: Preemergence, 31 g ai/ha, scale 0 to 100, 0 no effect, 100 complete control
Description: as §1, §2

foxtail, green = experiment: Test C preemergence; assay type: in vivo, Setaria viridis; conditions: for Foxtail, Green plant response rating: preemergence, scale 0 (no effect) to 100 (complete control); for Plant response rating, Foxtail, Green: Preemergence, 31 g ai/ha, scale 0 to 100, 0 no effect, 100 complete control
Description: as §1, §2

goosegrass [2] = experiment: Test C preemergence; assay type: in vivo, Eleusine indica; conditions: for Goosegrass plant response rating: preemergence, scale 0 (no effect) to 100 (complete control); for Plant response rating, Goosegrass: Preemergence, 31 g ai/ha, scale 0 to 100, 0 no effect, 100 complete control
Description: as §1, §2

nightshade = experiment: Test C preemergence; assay type: in vivo, Solanum ptycanthum; conditions: for Nightshade plant response rating: preemergence, scale 0 (no effect) to 100 (complete control)
Description: as §1, §2

sunflower = experiment: Test C preemergence; assay type: in vivo, Helianthus annuus; conditions: for Sunflower plant response rating: preemergence, scale 0 (no effect) to 100 (complete control); for Plant response rating, Sunflower: Preemergence, 31 g ai/ha, scale 0 to 100, 0 no effect, 100 complete control
Description: as §1, §2

[3] = tested on: waterhemp_RES1 (ALS & Triazine resistant common waterhemp); experiment: Test E postemergence; assay type: in vivo, Amaranthus rudis
Summary of the method: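 Compound in a non-phytotoxic solvent mixture with surfactant was applied preemergence to seeds in silt loam soil, or postemergence to plants 2 to 18 cm tall grown in peat-based potting medium. Plants were kept in a greenhouse for 14 to 21 days, then rated visually against untreated controls on a 0 (no effect) to 100 (complete control) scale.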

[4] = Postemergence, 31 g ai/ha, scale 0 to 100
[5] = Postemergence, 62 g ai/ha, scale 0 to 100
[6] = Postemergence, 125 g ai/ha, scale 0 to 100
[7] = Postemergence, 250 g ai/ha, scale 0 to 100
[8] = postemergence, 16 g ai/ha, scale 0 to 100, 0 no effect, 100 complete control

Fc1cnc(Oc2ccccc2-n2cc(Br)cn2)nc1 [Compound 10, 2-[2-(4-bromo-1H-pyrazol-1-yl)phenoxy]-5-fluoropyrimidine]
Plant response rating (0 to 100), Goosegrass (goosegrass [1]; 125 g ai/ha): 5 | Plant response rating (0 to 100), Goosegrass (goosegrass [1]; 250 g ai/ha): 10 | Plant response rating, Goosegrass (goosegrass [1]; 31 g ai/ha, 13 to 15 days): 0 | Plant response rating, Goosegrass (goosegrass [1]; 62 g ai/ha): 5 | Plant response rating (0 to 100), Bromegrass, Downy (bromegrass, downy; 125 g ai/ha): 10 | Plant response rating (0 to 100), Bromegrass, Downy (bromegrass, downy; 250 g ai/ha): 15 | Plant response rating, Bromegrass, Downy (bromegrass, downy; 31 g ai/ha, 13 to 15 days): 5 | Plant response rating, Bromegrass, Downy (bromegrass, downy; 62 g ai/ha): 5 | Plant response rating (0 to 100), Windgrass (windgrass; 125 g ai/ha): 50 | Plant response rating (0 to 100), Windgrass (windgrass; 250 g ai/ha): 65 | Plant response rating, Windgrass (windgrass; 31 g ai/ha, 13 to 15 days): 10 | Plant response rating, Windgrass (windgrass; 62 g ai/ha): 10 | pest or weed control at 31 g/ha (palmer pigweed; [4]): 70% | pest or weed control at 62 g/ha (palmer pigweed; [5]): 75% | pest or weed control at 125 g/ha (palmer pigweed; [6]): 85% | pest or weed control at 250 g/ha (palmer pigweed; [7]): 95% | pest or weed control at 16 g/ha (palmer pigweed; [8]): 60%

FC(F)(F)c1cnn(-c2ccccc2Oc2ncc(Cl)cn2)c1 [Compound 16]
Kochia plant response rating (kochia; 62 g ai/ha): 80 | Kochia plant response rating (kochia; 125 g ai/ha): 85 | Kochia plant response rating (kochia; 250 g ai/ha): 100 | Plant response rating, Kochia (kochia): 50 | Surinam Grass plant response rating (surinam grass; 62 g ai/ha): 100 | Surinam Grass plant response rating (surinam grass; 125 g ai/ha): 100 | Surinam Grass plant response rating (surinam grass; 250 g ai/ha): 100 | Plant response rating, Surinam Grass (surinam grass): 25 | Foxtail, Green plant response rating (foxtail, green; 62 g ai/ha): 90 | Foxtail, Green plant response rating (foxtail, green; 125 g ai/ha): 90 | Foxtail, Green plant response rating (foxtail, green; 250 g ai/ha): 90 | Plant response rating, Foxtail, Green (foxtail, green): 90 | Goosegrass plant response rating (goosegrass [2]; 62 g ai/ha): 98 | Goosegrass plant response rating (goosegrass [2]; 125 g ai/ha): 100 | Goosegrass plant response rating (goosegrass [2]; 250 g ai/ha): 100 | Plant response rating, Goosegrass (goosegrass [2]): 75 | Nightshade plant response rating (nightshade; 62 g ai/ha): 65 | Nightshade plant response rating (nightshade; 125 g ai/ha): 80 | Nightshade plant response rating (nightshade; 250 g ai/ha): 98 | Plant response rating, Nightshade (nightshade; Preemergence, 31 g ai/ha, scale 0 to 100, 0 no effect, 100 complete control): 20 | Sunflower plant response rating (sunflower; 62 g ai/ha): 0 | Sunflower plant response rating (sunflower; 125 g ai/ha): 0 | Sunflower plant response rating (sunflower; 250 g ai/ha): 0 | Plant response rating, Sunflower (sunflower): 0 | Plant response rating (0 to 100), Goosegrass (goosegrass [1]; 125 g ai/ha): 15 | Plant response rating (0 to 100), Goosegrass (goosegrass [1]; 250 g ai/ha): 30 | Plant response rating, Goosegrass (goosegrass [1]; 31 g ai/ha, 13 to 15 days): 0 | Plant response rating, Goosegrass (goosegrass [1]; 62 g ai/ha): 10 | Plant response rating (0 to 100), Bromegrass, Downy (bromegrass, downy; 125 g ai/ha): 5 | Plant response rating (0 to 100), Bromegrass, Downy (bromegrass, downy; 250 g ai/ha): 5 | Plant response rating, Bromegrass, Downy (bromegrass, downy; 31 g ai/ha, 13 to 15 days): 0 | Plant response rating, Bromegrass, Downy (bromegrass, downy; 62 g ai/ha): 5 | Plant response rating (0 to 100), Windgrass (windgrass; 125 g ai/ha): 50 | Plant response rating (0 to 100), Windgrass (windgrass; 250 g ai/ha): 50 | Plant response rating, Windgrass (windgrass; 31 g ai/ha, 13 to 15 days): 30 | Plant response rating, Windgrass (windgrass; 62 g ai/ha): 40 | Plant response rating, Waterhemp_RES1 [3, 4]: 50 | Plant response rating, Waterhemp_RES1 [3, 5]: 60 | Plant response rating, Waterhemp_RES1 [3, 6]: 75 | Plant response rating, Waterhemp_RES1 [3, 7]: 95 | Plant response rating, Waterhemp_RES1 [3, 8]: 50

FC(F)(F)c1cnn(-c2ccccc2Oc2ncc(Br)cn2)c1 [Compound 18, 5-bromo-2-[2-[4-(trifluoromethyl)-1H-pyrazol-1-yl]phenoxy]pyrimidine]
Kochia plant response rating (kochia; 62 g ai/ha): 60 | Kochia plant response rating (kochia; 125 g ai/ha): 80 | Kochia plant response rating (kochia; 250 g ai/ha): 98 | Plant response rating, Kochia (kochia): 15 | Surinam Grass plant response rating (surinam grass; 62 g ai/ha): 30 | Surinam Grass plant response rating (surinam grass; 125 g ai/ha): 100 | Surinam Grass plant response rating (surinam grass; 250 g ai/ha): 100 | Plant response rating, Surinam Grass (surinam grass): 20 | Foxtail, Green plant response rating (foxtail, green; 62 g ai/ha): 90 | Foxtail, Green plant response rating (foxtail, green; 125 g ai/ha): 90 | Foxtail, Green plant response rating (foxtail, green; 250 g ai/ha): 90 | Plant response rating, Foxtail, Green (foxtail, green): 85 | Goosegrass plant response rating (goosegrass [2]; 62 g ai/ha): 85 | Goosegrass plant response rating (goosegrass [2]; 125 g ai/ha): 95 | Goosegrass plant response rating (goosegrass [2]; 250 g ai/ha): 100 | Plant response rating, Goosegrass (goosegrass [2]): 75 | Nightshade plant response rating (nightshade; 62 g ai/ha): 30 | Nightshade plant response rating (nightshade; 125 g ai/ha): 80 | Nightshade plant response rating (nightshade; 250 g ai/ha): 95 | Sunflower plant response rating (sunflower; 62 g ai/ha): 0 | Sunflower plant response rating (sunflower; 125 g ai/ha): 0 | Sunflower plant response rating (sunflower; 250 g ai/ha): 40 | Plant response rating, Sunflower (sunflower): 0
